Experimental data as given in ChEMBL document CHEMBL1201862, “PubChem BioAssay data set” (2004).
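Growth conditions: 96-well plates. Treatment: test compound, 48 hours, 5 concentrations. Analysis: linear interpolation between bracketing concentrations; unreached endpoints set to highest concentration. GI50: concentration for 50% inhibition of growth.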 Active and inactive are the calls of the source. Cut-off read from the data, not from the text of the source: active = GI50 up to about 1.1 µM and inactive = higher.

Tests used:
Test in all cases: NCI tumour cell line growth inhibition, 48 h
UO-31 = system: UO-31
HCT-15 = system: HCT-15
SF-268 = system: SF-268
BT-549 = system: BT-549
TK-10 = system: TK-10
RPMI-8226 = system: RPMI-8226
MDA-MB-231 = system: MDA-MB-231
PC-3 = system: PC-3
OVCAR-4 = system: OVCAR-4
RXF 393 = system: RXF 393
UACC-62 = system: UACC-62
SR = system: SR
OVCAR-5 = system: OVCAR-5
786-0 = system: 786-0
Hs-578T = system: Hs-578T
SK-MEL-2 = system: SK-MEL-2
MCF7 = system: MCF7
HT-29 = system: HT-29
IGROV-1 = system: IGROV-1
SK-MEL-5 = system: SK-MEL-5

Row | Structure (SMILES) | GI50 (UO-31) | GI50 (HCT-15) [µM] | GI50 (SF-268) | GI50 (BT-549) | GI50 (TK-10) | GI50 (RPMI-8226) | GI50 (MDA-MB-231) | GI50 (PC-3) | GI50 (OVCAR-4) | GI50 (RXF 393) | GI50 (UACC-62) | GI50 (SR) | GI50 (OVCAR-5) | GI50 (786-0) | GI50 (Hs-578T) | GI50 (SK-MEL-2) | GI50 (MCF7) | GI50 (HT-29) | GI50 (IGROV-1) | GI50 (SK-MEL-5)
1 | CCOC(=O)c1cc(=O)oc2c1N(C)c1ncccc1N2 | 50.9 µM (inactive) | > 100 | > 100 µM (inactive) | > 100 µM (inactive) | > 100 µM (inactive) | > 100 µM (inactive) | 69.5 µM (inactive) | > 100 µM (inactive) | > 100 µM (inactive) | > 100 µM (inactive) | > 100 µM (inactive) | 63.4 µM (inactive) | > 100 µM (inactive) | > 100 µM (inactive) | > 100 µM (inactive) | > 100 µM (inactive) | > 100 µM (inactive) |  |  | 
2 | Nc1nc(Nc2ccc(Cl)cc2)sc1C(=O)c1cc2ccccc2oc1=O | > 100 µM (inactive) | 34.5 | 18.3 µM (inactive) | 28 µM (inactive) | > 100 µM (inactive) | 29.4 µM (inactive) | 37.8 µM (inactive) | 48.1 µM (inactive) | 27.7 µM (inactive) | 82.6 µM (inactive) | 55.8 µM (inactive) |  | > 100 µM (inactive) | 19.5 µM (inactive) | 27.2 µM (inactive) | 7.94 µM (inactive) | 25 µM (inactive) | 72.4 µM (inactive) | 56.6 µM (inactive) | 67.6 µM (inactive)
3 | COc1ccc(OC/C(N)=N/NC(=O)c2ccncc2)cc1 |  | > 100 | > 100 µM (inactive) | > 100 µM (inactive) | > 100 µM (inactive) | > 100 µM (inactive) | > 100 µM (inactive) | > 100 µM (inactive) | > 100 µM (inactive) | > 100 µM (inactive) | > 100 µM (inactive) |  | > 100 µM (inactive) | > 100 µM (inactive) | > 100 µM (inactive) | > 100 µM (inactive) | > 100 µM (inactive) | > 100 µM (inactive) | > 100 µM (inactive) | 
4 | Cc1ccc(-n2cc(-c3ccc(Cl)cc3)c3c2N=CN2N=C(c4cccs4)NC32)cc1 (stereo not drawn) | 7.64 µM (inactive) | 51.8 | 17.8 µM (inactive) | 20.1 µM (inactive) | 11.2 µM (inactive) |  | 4.52 µM (inactive) | 16.5 µM (inactive) | 2.21 µM (inactive) | 12.4 µM (inactive) | 23.2 µM (inactive) | 7.64 µM (inactive) | 11.1 µM (inactive) | 4.28 µM (inactive) | 2.07 µM (inactive) | 13.1 µM (inactive) | 32.5 µM (inactive) | 23 µM (inactive) | 14.2 µM (inactive) | > 100 µM (inactive)
5 | COc1cc2nc(-c3cccs3)nc(N3C(c4ccc(O)cc4)=NNC(=O)c4ccccc43)c2cc1OC | 19 µM (inactive) | 32 | 28.7 µM (inactive) | 21 µM (inactive) | 30.5 µM (inactive) | 15 µM (inactive) | 18.9 µM (inactive) | 25.6 µM (inactive) | 28.8 µM (inactive) | 19.8 µM (inactive) | 20.5 µM (inactive) |  | 28.8 µM (inactive) | 52.8 µM (inactive) | 42.9 µM (inactive) | 26.9 µM (inactive) | 36.7 µM (inactive) | 23.1 µM (inactive) | 32.7 µM (inactive) | 46.8 µM (inactive)
6 | CCOC(=O)/C=C(\C(=O)OCC)n1cc(Cl)c(=O)n(CC(=O)OCC)c1=O | 1.87 µM (inactive) | 3.17 | 17.7 µM (inactive) | 18 µM (inactive) | 1.89 µM (inactive) | 1.74 µM (inactive) | 16 µM (inactive) | 14.5 µM (inactive) | 15.2 µM (inactive) | 1.69 µM (inactive) | 10.9 µM (inactive) |  | 18.1 µM (inactive) | 1.73 µM (inactive) | 23.7 µM (inactive) | 16.2 µM (inactive) | 2.62 µM (inactive) | 16.5 µM (inactive) | 6.93 µM (inactive) | 15.7 µM (inactive)
7 | O=C(O)COc1cc(-c2ccccc2)nc2ccccc12 | 61.4 µM (inactive) | 36.9 | > 100 µM (inactive) | > 100 µM (inactive) | > 100 µM (inactive) | 86.7 µM (inactive) | > 100 µM (inactive) | > 100 µM (inactive) | 77.1 µM (inactive) |  | > 10 µM (inactive) | 63 µM (inactive) | > 100 µM (inactive) | 81.8 µM (inactive) | 62.4 µM (inactive) | > 100 µM (inactive) | 49 µM (inactive) | 35.4 µM (inactive) | 56.4 µM (inactive) | 33.9 µM (inactive)
8 | N=C(N)Nc1ccc(CC(N)C(=O)NCC(=O)C(CC(=O)O)c2ncc(NC(=O)C(F)(F)F)o2)cc1 (stereo not drawn) | > 25 µM (inactive) | > 25 | > 25 µM (inactive) | > 25 µM (inactive) | > 25 µM (inactive) | > 25 µM (inactive) | > 25 µM (inactive) | > 25 µM (inactive) | > 25 µM (inactive) | > 25 µM (inactive) | > 25 µM (inactive) |  | > 25 µM (inactive) | > 25 µM (inactive) | > 25 µM (inactive) | > 25 µM (inactive) | 18.4 µM (inactive) | > 25 µM (inactive) | > 25 µM (inactive) | > 25 µM (inactive)
9 | Cc1cc2nc3c(C#N)c4c(c(Nc5ccc(F)cc5)n3c2cc1C)CCC4 |  | > 100 | > 100 µM (inactive) | > 100 µM (inactive) | > 100 µM (inactive) | > 100 µM (inactive) | > 100 µM (inactive) | > 100 µM (inactive) | > 100 µM (inactive) | > 100 µM (inactive) | > 100 µM (inactive) | > 100 µM (inactive) | > 100 µM (inactive) | > 100 µM (inactive) | 70.5 µM (inactive) | > 100 µM (inactive) | > 100 µM (inactive) | > 100 µM (inactive) | > 100 µM (inactive) | > 100 µM (inactive)
10 | O=C1NC(c2ccc3ccccc3c2)Nc2ccccc21 (stereo not drawn) | 64.9 µM (inactive) | 14.8 | > 100 µM (inactive) | 5.26 µM (inactive) | > 100 µM (inactive) | 29.9 µM (inactive) | > 100 µM (inactive) | 27.9 µM (inactive) | 58.5 µM (inactive) | 51.9 µM (inactive) | 21.9 µM (inactive) | 5.83 µM (inactive) |  | 45.7 µM (inactive) | 57.4 µM (inactive) | 35.9 µM (inactive) | 46.1 µM (inactive) | 24.8 µM (inactive) | 23.6 µM (inactive) | 20 µM (inactive)
11 | O=C1C[C@H](c2ccccc2)O[C@@H](c2ccccc2)C1 | > 100 µM (inactive) | > 100 | > 100 µM (inactive) | > 100 µM (inactive) |  | > 100 µM (inactive) | > 100 µM (inactive) | > 100 µM (inactive) | > 100 µM (inactive) | > 100 µM (inactive) | > 100 µM (inactive) |  | > 100 µM (inactive) | 88.1 µM (inactive) | > 100 µM (inactive) | > 100 µM (inactive) | 74.3 µM (inactive) | > 100 µM (inactive) | > 100 µM (inactive) | > 100 µM (inactive)
12 | Nn1c(=O)[nH]c2ncn(Cc3ccccc3)c2c1=O | > 100 µM (inactive) | > 100 | > 100 µM (inactive) | > 100 µM (inactive) | > 100 µM (inactive) |  | > 100 µM (inactive) | > 100 µM (inactive) | > 100 µM (inactive) | > 100 µM (inactive) | > 100 µM (inactive) | > 100 µM (inactive) | > 100 µM (inactive) | > 100 µM (inactive) | > 100 µM (inactive) | > 100 µM (inactive) | > 100 µM (inactive) | > 100 µM (inactive) | > 100 µM (inactive) | > 100 µM (inactive)
13 | NCCN(CCN(C(=O)Nc1ccccc1)c1ccccc1)C(=O)Nc1ccccc1 | 15.3 µM (inactive) | 24.5 | 18.6 µM (inactive) | 22.7 µM (inactive) | 24.5 µM (inactive) | 27.5 µM (inactive) | 39.1 µM (inactive) | 24.5 µM (inactive) |  | 14.7 µM (inactive) | 16.6 µM (inactive) | 27.6 µM (inactive) | 19 µM (inactive) | 24.9 µM (inactive) | 19.2 µM (inactive) | 19.2 µM (inactive) | 19.6 µM (inactive) | 28.5 µM (inactive) | 17.6 µM (inactive) | 18.5 µM (inactive)
14 | COCCc1c(C)c(C#N)c2n(C)c3ccccc3n2c1=O |  | > 10 | > 10 µM (inactive) | > 10 µM (inactive) | > 10 µM (inactive) | > 10 µM (inactive) | > 10 µM (inactive) | > 10 µM (inactive) | > 10 µM (inactive) | > 10 µM (inactive) | > 10 µM (inactive) | > 10 µM (inactive) | > 10 µM (inactive) | > 10 µM (inactive) | > 10 µM (inactive) | > 10 µM (inactive) | > 10 µM (inactive) | > 10 µM (inactive) | > 10 µM (inactive) | > 10 µM (inactive)
15 | COc1cc(C2CC(C)(N3CCOCC3)Oc3cc4c(cc32)OCO4)cc(OC)c1OC (stereo not drawn) | 12.2 µM (inactive) | 0.136 | 4.83 µM (inactive) | > 100 µM (inactive) |  | 0.0263 µM (active) | 0.0748 µM (active) | 0.116 µM (active) | 0.275 µM (active) |  | 0.139 µM (active) | 0.206 µM (active) | > 100 µM (inactive) | 0.157 µM (active) | 0.191 µM (active) |  | 0.458 µM (active) | 0.131 µM (active) | 0.222 µM (active) | 0.103 µM (active)
